According to PubChem BioAssay AID2060513 (Molecular Pharmacology Branch, DTP, NCI, 2025):

Tested on: 299254-011-R-J1-PDC complex spheroids viability
Test: Anticancer human tumor 299254-011-R-J1-PDC patient-derived melanoma cell line growth inhibition [GQUAD]
Settings: for IC50: curve of first compound; for viability, T/C: stronger effect = lower value
How it was run: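 Multi-cell-type spheroids of tumor cells with HUVEC and mesenchymal stem cells, treated with drug combinations. Concentrations descend in half-log steps from near clinical Cmax, or from 10 microM where Cmax is unknown; viability read-out.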

[1] = second compound 0.0316 µM, first compound 0.0316 µM
[2] = second compound 0.0316 µM, first compound 0.1 µM
[3] = second compound 0.0316 µM, first compound 0.316 µM
[4] = second compound 0.0316 µM, first compound 1 µM
[5] = second compound 0.0316 µM, first compound 3.16 µM
[6] = second compound 0.0316 µM, first compound 10 µM
[7] = second compound 0.1 µM, first compound 0.0316 µM
[8] = second compound 0.1 µM, first compound 0.1 µM
[9] = second compound 0.1 µM, first compound 0.316 µM
[10] = second compound 0.1 µM, first compound 1 µM
[11] = second compound 0.1 µM, first compound 3.16 µM
[12] = second compound 0.1 µM, first compound 10 µM
[13] = second compound 0.316 µM, first compound 0.0316 µM
[14] = second compound 0.316 µM, first compound 0.1 µM
[15] = second compound 0.316 µM, first compound 0.316 µM
[16] = second compound 0.316 µM, first compound 1 µM
[17] = second compound 0.316 µM, first compound 3.16 µM
[18] = second compound 0.316 µM, first compound 10 µM
[19] = second compound 1 µM, first compound 0.0316 µM
[20] = second compound 1 µM, first compound 0.1 µM
[21] = second compound 1 µM, first compound 0.316 µM
[22] = second compound 1 µM, first compound 1 µM
[23] = second compound 1 µM, first compound 3.16 µM
[24] = second compound 1 µM, first compound 10 µM
[25] = second compound 3.16 µM, first compound 0.0316 µM
[26] = second compound 3.16 µM, first compound 0.1 µM
[27] = second compound 3.16 µM, first compound 0.316 µM
[28] = second compound 3.16 µM, first compound 1 µM
[29] = second compound 3.16 µM, first compound 3.16 µM
[30] = second compound 3.16 µM, first compound 10 µM
[31] = second compound 10 µM, first compound 0.0316 µM
[32] = second compound 10 µM, first compound 0.1 µM
[33] = second compound 10 µM, first compound 0.316 µM
[34] = second compound 10 µM, first compound 1 µM
[35] = second compound 10 µM, first compound 3.16 µM
[36] = second compound 10 µM, first compound 10 µM
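Also: spheroids exposed to the agents for seven days before readout.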
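For viability, T/C in this document: percent viability relative to DMSO vehicle control wells = 100%.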

CC1COCCN1c1cc(C2(O)CC3CCC(C2)O3)c2cnn(-c3ccn[nH]3)c2n1 (stereo not given) + Cc1[nH]c2ccc(F)cc2c1-c1nc2c3cccnc3c3ncccc3c2[nH]1
IC50 (second compound 0.0316 µM): 127 nM
IC50 (second compound 0.1 µM): 135 nM
IC50 (second compound 0.316 µM): 178 nM
IC50 (second compound 1 µM): 125 nM
IC50 (second compound 3.16 µM): 109 nM
IC50 (second compound 10 µM): 83.8 nM
viability, T/C [1]: 83.2%
viability, T/C [2]: 54.7%
viability, T/C [3]: 31.3%
viability, T/C [4]: 14.4%
viability, T/C [5]: 12.2%
viability, T/C [6]: 8.75%
viability, T/C [7]: 72.7%
viability, T/C [8]: 60.4%
viability, T/C [9]: 20.7%
viability, T/C [10]: 14.7%
viability, T/C [11]: 14.4%
viability, T/C [12]: 7.02%
viability, T/C [13]: 77.3%
viability, T/C [14]: 76.6%
viability, T/C [15]: 23.8%
viability, T/C [16]: 19.6%
viability, T/C [17]: 12.6%
viability, T/C [18]: 7.48%
viability, T/C [19]: 73.7%
viability, T/C [20]: 55.8%
viability, T/C [21]: 30.4%
viability, T/C [22]: 22.1%
viability, T/C [23]: 13.7%
viability, T/C [24]: 7.91%
viability, T/C [25]: 84.5%
viability, T/C [26]: 52.7%
viability, T/C [27]: 22.5%
viability, T/C [28]: 16%
viability, T/C [29]: 14%
viability, T/C [30]: 6.07%
viability, T/C [31]: 73%
viability, T/C [32]: 46.9%
viability, T/C [33]: 21.8%
viability, T/C [34]: 15.1%
viability, T/C [35]: 9.33%
viability, T/C [36]: 4.43%

CC1COCCN1c1cc(-c2ccnn2C)c2ccnc(-c3ccn[nH]3)c2n1 (stereo not given) + Cc1cnc(CNC(=O)c2c(=O)c3ccc(N4CCCN(C)CC4)nc3n3c2sc2ccccc23)cn1
IC50 (second compound 0.0316 µM): 114 nM
IC50 (second compound 0.1 µM): 121 nM
IC50 (second compound 0.316 µM): < 31.6 nM
IC50 (second compound 1 µM): < 31.6 nM
IC50 (second compound 3.16 µM): < 31.6 nM
IC50 (second compound 10 µM): < 31.6 nM
viability, T/C [1]: 99.1%
viability, T/C [2]: 48.2%
viability, T/C [3]: 37.9%
viability, T/C [4]: 17.6%
viability, T/C [5]: 20%
viability, T/C [6]: 13.2%
viability, T/C [7]: 84.5%
viability, T/C [8]: 55.3%
viability, T/C [9]: 23.4%
viability, T/C [10]: 14.4%
viability, T/C [11]: 17.2%
viability, T/C [12]: 12.9%
viability, T/C [13]: 40.9%
viability, T/C [14]: 32.9%
viability, T/C [15]: 23.6%
viability, T/C [16]: 17.5%
viability, T/C [17]: 16.8%
viability, T/C [18]: 12.6%
viability, T/C [19]: 22%
viability, T/C [20]: 22.2%
viability, T/C [21]: 22.3%
viability, T/C [22]: 18.8%
viability, T/C [23]: 13%
viability, T/C [24]: 15.2%
viability, T/C [25]: 26.5%
viability, T/C [26]: 26.2%
viability, T/C [27]: 18%
viability, T/C [28]: 13.4%
viability, T/C [29]: 14.9%
viability, T/C [30]: 16.7%
viability, T/C [31]: 0.18%
viability, T/C [32]: 0.22%
viability, T/C [33]: 2.32%
viability, T/C [34]: 0.18%
viability, T/C [35]: 0.23%
viability, T/C [36]: 0.22%

C=CCn1c(=O)c2cnc(Nc3ccc(N4CCN(C)CC4)cc3)nc2n1-c1cccc(C(C)(C)O)n1 + Cc1cnc(CNC(=O)c2c(=O)c3ccc(N4CCCN(C)CC4)nc3n3c2sc2ccccc23)cn1
IC50 (second compound 0.0316 µM): 1540 nM
IC50 (second compound 0.1 µM): 1500 nM
IC50 (second compound 0.316 µM): 1180 nM
IC50 (second compound 1 µM): 678 nM
IC50 (second compound 3.16 µM): 607 nM
IC50 (second compound 10 µM): < 31.6 nM
viability, T/C [1]: 118%
viability, T/C [2]: 109%
viability, T/C [3]: 100%
viability, T/C [4]: 55.2%
viability, T/C [5]: 41%
viability, T/C [6]: 25.3%
viability, T/C [7]: 109%
viability, T/C [8]: 112%
viability, T/C [9]: 77.3%
viability, T/C [10]: 64.2%
viability, T/C [11]: 31.5%
viability, T/C [12]: 27.1%
viability, T/C [13]: 89.8%
viability, T/C [14]: 125%
viability, T/C [15]: 88.2%
viability, T/C [16]: 55%
viability, T/C [17]: 30.1%
viability, T/C [18]: 30.1%
viability, T/C [19]: 75.3%
viability, T/C [20]: 80.8%
viability, T/C [21]: 71.9%
viability, T/C [22]: 38.6%
viability, T/C [23]: 27.9%
viability, T/C [24]: 24.4%
viability, T/C [25]: 73.3%
viability, T/C [26]: 74.9%
viability, T/C [27]: 55.5%
viability, T/C [28]: 44.4%
viability, T/C [29]: 28.9%
viability, T/C [30]: 20.2%
viability, T/C [31]: 19%
viability, T/C [32]: 15.2%
viability, T/C [33]: 41.8%
viability, T/C [34]: 36.9%
viability, T/C [35]: 0.45%
viability, T/C [36]: 0.32%

CC(C)(O)C1CCC(Nc2ccc3ncc(-c4cccc(C(F)(F)F)c4)n3n2)CC1 (stereo not given) + Cc1cnc(CNC(=O)c2c(=O)c3ccc(N4CCCN(C)CC4)nc3n3c2sc2ccccc23)cn1
IC50 (second compound 0.0316 µM): > 10000 nM
IC50 (second compound 0.1 µM): > 10000 nM
IC50 (second compound 0.316 µM): > 10000 nM
IC50 (second compound 1 µM): 4520 nM
IC50 (second compound 3.16 µM): 1960 nM
IC50 (second compound 10 µM): < 31.6 nM
viability, T/C [1]: 98.5%
viability, T/C [2]: 114%
viability, T/C [3]: 97.5%
viability, T/C [4]: 90.7%
viability, T/C [5]: 54.5%
viability, T/C [6]: 100%
viability, T/C [7]: 89.3%
viability, T/C [8]: 101%
viability, T/C [9]: 113%
viability, T/C [10]: 98.6%
viability, T/C [11]: 63.7%
viability, T/C [12]: 110%
viability, T/C [13]: 90.1%
viability, T/C [14]: 100%
viability, T/C [15]: 88.4%
viability, T/C [16]: 98.2%
viability, T/C [17]: 60%
viability, T/C [18]: 84%
viability, T/C [19]: 81.7%
viability, T/C [20]: 112%
viability, T/C [21]: 96.7%
viability, T/C [22]: 74.7%
viability, T/C [23]: 55.8%
viability, T/C [24]: 42.3%
viability, T/C [25]: 76.7%
viability, T/C [26]: 85.9%
viability, T/C [27]: 86.4%
viability, T/C [28]: 76.8%
viability, T/C [29]: 24.1%
viability, T/C [30]: 37.6%
viability, T/C [31]: 45.7%
viability, T/C [32]: 18%
viability, T/C [33]: 17.3%
viability, T/C [34]: 0.33%
viability, T/C [35]: 0.29%
viability, T/C [36]: 0.26%

CC(C)(O)C1CCC(Nc2ccc3ncc(-c4cccc(C(F)(F)F)c4)n3n2)CC1 (stereo not given) + CN(C)c1ccc(Nc2c3ccc(NC(=O)CCN4CCCC4)cc3nc3cc(NC(=O)CCN4CCCC4)ccc23)cc1
IC50 (second compound 0.0316 µM): > 10000 nM
IC50 (second compound 0.1 µM): > 10000 nM
IC50 (second compound 0.316 µM): > 10000 nM
IC50 (second compound 1 µM): > 10000 nM
IC50 (second compound 3.16 µM): > 10000 nM
IC50 (second compound 10 µM): 2730 nM
viability, T/C [1]: 107%
viability, T/C [2]: 117%
viability, T/C [3]: 130%
viability, T/C [4]: 98.6%
viability, T/C [5]: 95.1%
viability, T/C [6]: 92.2%
viability, T/C [7]: 97.2%
viability, T/C [8]: 94.7%
viability, T/C [9]: 97.8%
viability, T/C [10]: 94.5%
viability, T/C [11]: 94%
viability, T/C [12]: 121%
viability, T/C [13]: 103%
viability, T/C [14]: 92%
viability, T/C [15]: 101%
viability, T/C [16]: 89.5%
viability, T/C [17]: 85.1%
viability, T/C [18]: 133%
viability, T/C [19]: 89.7%
viability, T/C [20]: 103%
viability, T/C [21]: 88.6%
viability, T/C [22]: 107%
viability, T/C [23]: 82.8%
viability, T/C [24]: 100%
viability, T/C [25]: 91.5%
viability, T/C [26]: 93.9%
viability, T/C [27]: 117%
viability, T/C [28]: 112%
viability, T/C [29]: 65.5%
viability, T/C [30]: 84.2%
viability, T/C [31]: 105%
viability, T/C [32]: 103%
viability, T/C [33]: 103%
viability, T/C [34]: 111%
viability, T/C [35]: 27.6%
viability, T/C [36]: 56.4%
